From US20210338846A1, “COMPETITIVE PROSTATE-SPECIFIC MEMBRANE ANTIGEN (PSMA) BINDING AGENTS FOR REDUCTION OF NON-TARGET ORGAN UPTAKE OF RADIOLABELED PSMA INHIBITORS FOR PSMA POSITIVE TUMOR IMAGING AND RADIOPHARMACEUTICAL THERAPY” (The Johns Hopkins University, priority 2018, published 2021)

Columns and labels:
[1] = tested on: PSMA+ PC-3 PiP and PSMA− PC-3 flu tumors; assay: Biodistribution of [177Lu]VK-I-45 without and with co-injection of competing inhibitor [Lu]VK-I-45; type: in vivo, mice; details: for Biodistribution: Blood / Biodistribution: Flu tumor / Biodistribution: PiP tumor / Biodistribution: Salivary gland / Biodistribution: kidneys / Biodistribution: spleen / Biodistribution: stomach: 2 Hour
Description: VK-01-45 and its Lu-177 complex was reported in international PCT patent application publication no. WO 2017/165473 A, to Ray et al., which is incorporated herein by reference in its entirety. […] This approach can be applied to all compounds in WO 2017/165473 A1, to Ray et al.

[2] = tested on: PSMA+ PC-3 PiP and PSMA− PC-3 flu tumors; assay: Biodistribution of [177Lu]VK-03-27 without and with co-injection of competing inhibitor VK-03-27; type: in vivo, mice; details: VK-03-27 (no Lu complex) as the CI
[3] = co-injection 0.1 nmole [Lu]VK-I-45
[4] = co-injection 0.5 nmole [Lu]VK-I-45
[5] = co-injection 1.0 nmole [Lu]VK-I-45
[6] = co-injection 5.0 nmole [Lu]VK-I-45

Q: With `O=C([O-])CN1CCN(CC(=O)[O-])CCN(CC(=O)NCCCCC(=O)N(CCCC[C@H](NC(=O)N[C@@H](CCC(=O)O)C(=O)O)C(=O)O)Cc2ccc(Br)cc2)CCN(CC(=O)[O-])CC1.[177Lu+3]` [[^177Lu]VK-I-45] as the compound, how does the “Biodistribution: Blood” value ([1]; No CI) read?
A: Its value is 0.1 ± 0.04 % injected dose/gram.

Q: And the “Biodistribution: Flu tumor” value ([1]; No CI)?
A: The value was 0.3 ± 0.06 % injected dose/gram.

Q: What about the “Biodistribution: PiP tumor” value ([1]; No CI) of the same compound?
A: Its value is 39 ± 14 % injected dose/gram.

Q: And the “Biodistribution: Salivary gland” value ([1]; No CI)?
A: Its value is 0.16 ± 0.07 % injected dose/gram.

Q: And the “Biodistribution: kidneys” value ([1]; No CI)?
A: Its value is 35 ± 17 % injected dose/gram.

Q: And the “Biodistribution: spleen” value ([1]; No CI)?
A: Its value is 0.7 ± 0.2 % injected dose/gram.

Q: And the “Biodistribution: stomach” value ([1]; No CI)?
A: Its value is 0.1 ± 0.04 % injected dose/gram.

Q: And the “Biodistribution: Blood” value [1, 3]?
A: Its value is 0.12 ± 0.02 % injected dose/gram.

Q: And the “Biodistribution: Flu tumor” value [1, 3]?
A: The value was 0.4 ± 0.07 % injected dose/gram.

Q: And the “Biodistribution: PiP tumor” value [1, 3]?
A: Its value is 38 ± 4 % injected dose/gram.

Q: And the “Biodistribution: Salivary gland” value [1, 3]?
A: Its value is 0.16 ± 0.03 % injected dose/gram.

Q: What about the “Biodistribution: kidneys” value [1, 3] of the same compound?
A: The value was 17 ± 11 % injected dose/gram.

Q: And the “Biodistribution: spleen” value [1, 3]?
A: The value was 0.65 ± 0.1 % injected dose/gram.

Q: And the “Biodistribution: stomach” value [1, 3]?
A: Its value is 0.2 ± 0.08 % injected dose/gram.

Q: And the “Biodistribution: Blood” value [1, 4]?
A: Its value is 0.11 ± 0.04 % injected dose/gram.

Q: What about the “Biodistribution: Flu tumor” value [1, 4] of the same compound?
A: Its value is 0.35 ± 0.07 % injected dose/gram.

Q: And the “Biodistribution: PiP tumor” value [1, 4]?
A: The value was 35 ± 8 % injected dose/gram.

Q: And the “Biodistribution: Salivary gland” value [1, 4]?
A: Its value is 0.12 ± 0.02 % injected dose/gram.

Q: What about the “Biodistribution: kidneys” value [1, 4] of the same compound?
A: Its value is 4.8 ± 1.4 % injected dose/gram.

Q: What about the “Biodistribution: spleen” value [1, 4] of the same compound?
A: Its value is 0.32 ± 0.07 % injected dose/gram.

Q: What about the “Biodistribution: stomach” value [1, 4] of the same compound?
A: The value was 0.09 ± 0.02 % injected dose/gram.

Q: What about the “Biodistribution: Blood” value [1, 5] of the same compound?
A: Its value is 0.07 ± 0.02 % injected dose/gram.

Q: What about the “Biodistribution: Flu tumor” value [1, 5] of the same compound?
A: The value was 0.2 ± 0.03 % injected dose/gram.

Q: What about the “Biodistribution: PiP tumor” value [1, 5] of the same compound?
A: The value was 20 ± 1.5 % injected dose/gram.

Q: And the “Biodistribution: Salivary gland” value [1, 5]?
A: Its value is 0.07 ± 0.01 % injected dose/gram.

Q: And the “Biodistribution: kidneys” value [1, 5]?
A: Its value is 1.75 ± 0.32 % injected dose/gram.

Q: And the “Biodistribution: spleen” value [1, 5]?
A: The value was 0.15 ± 0.02 % injected dose/gram.

Q: And the “Biodistribution: stomach” value [1, 5]?
A: Its value is 0.13 ± 0.08 % injected dose/gram.

Q: And the “Biodistribution: Blood” value [1, 6]?
A: The value was 0.8 ± 0.04 % injected dose/gram.

Q: What about the “Biodistribution: Flu tumor” value [1, 6] of the same compound?
A: The value was 0.36 ± 0.14 % injected dose/gram.

Q: And the “Biodistribution: PiP tumor” value [1, 6]?
A: Its value is 17.3 ± 1.9 % injected dose/gram.

Q: What about the “Biodistribution: Salivary gland” value [1, 6] of the same compound?
A: Its value is 0.11 ± 0.04 % injected dose/gram.

Q: And the “Biodistribution: kidneys” value [1, 6]?
A: Its value is 1.35 ± 0.44 % injected dose/gram.

Q: What about the “Biodistribution: spleen” value [1, 6] of the same compound?
A: The value was 0.14 ± 0.06 % injected dose/gram.

Q: And the “Biodistribution: stomach” value [1, 6]?
A: Its value is 0.2 ± 0.18 % injected dose/gram.

Q: `O=C(O)CC[C@H](NC(=O)N[C@@H](CCCCN(Cc1ccc(Br)cc1)C(=O)CCCCNC(=O)CCC(C(=O)O)N1CCN(CC(=O)O)CCN(CC(=O)O)CCN(CC(=O)O)CC1)C(=O)O)C(=O)O` (stereo partly shown) [VK-03-27] was tested. Which “effect of competing inhibitor on uptake of [177Lu]VK-03-27” value [2] did it give?
A: The value was “reduces the uptake in kidneys, salivary glands and Lacrimal glands”.

Q: `O=C([O-])CN1CCN(CC(=O)[O-])CCN(CC(=O)NCCCCC(=O)N(CCCC[C@H](NC(=O)N[C@@H](CCC(=O)O)C(=O)O)C(=O)O)Cc2ccc(Br)cc2)CCN(CC(=O)[O-])CC1.[Lu+3]` [[Lu]VK-01-45] was tested. Which “effect of competing inhibitor on two-hour kidney uptake and retention of [177Lu]VK-01-45” value ([1]; self blocking, only a modest reduction in PSMA+PiP tumor uptake) did it give?
A: Its value is “can be reduced”.
